Columns and labels:
Assay in all cases: biochemical
Parameters in all cases: DiscoverX KinomeScan competition binding assay across human kinases; per cent of control at 10 and 100 uM
NEK10 = NEK10 (Homo sapiens, UniProt Q6ZWH5); conditions: competition binding, % of control; read-out: Percent Control (100 uM Levosimendan)
Method in brief: (§1)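 KinomeScan competition binding was run across a human kinase panel at 10 μM and 100 μM levosimendan. Results are %control = (test − positive control)/(negative control − positive control) × 100.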

CTK = target: T1, CTK (Homo sapiens, UniProt P42679); conditions: competition binding, % of control; read-out: Percent Control (100 uM Levosimendan)
T1 construct: gene MATK
Method in brief: as §1

TNNI3K = TNNI3K (Homo sapiens, UniProt Q59H18); conditions: competition binding, % of control; read-out: Percent Control (100 uM Levosimendan)
Method in brief: as §1

YANK2 = target: T2, YANK2 (Homo sapiens, UniProt Q9NY57); conditions: competition binding, % of control; read-out: Percent Control (100 uM Levosimendan)
T2 construct: gene STK32B
Method in brief: as §1

S6K1 = target: T3, S6K1 (Homo sapiens, UniProt P23443); conditions: competition binding, % of control
T3 construct: gene RPS6KB1
Method in brief: as §1

EPHA7 = EPHA7 (Homo sapiens, UniProt Q15375); conditions: competition binding, % of control; read-out: Percent Control (100 uM Levosimendan)
Method in brief: as §1

AMPK-alpha1 = target: T4, AMPK-alpha1 (Homo sapiens, UniProt Q13131); conditions: competition binding, % of control; read-out: Percent Control (100 uM Levosimendan)
T4 construct: gene PRKAA1
Method in brief: as §1

ACVR1B = ACVR1B (Homo sapiens, UniProt P36896); conditions: competition binding, % of control; read-out: Percent Control (100 uM Levosimendan)
Method in brief: as §1

CDKL2 = CDKL2 (Homo sapiens, UniProt Q92772); conditions: competition binding, % of control; read-out: Percent Control (100 uM Levosimendan)
Method in brief: as §1

RIOK1 = RIOK1 (Homo sapiens, UniProt Q9BRS2); conditions: competition binding, % of control
Method in brief: as §1

SRMS = SRMS (Homo sapiens, UniProt Q9H3Y6); conditions: competition binding, % of control; read-out: Percent Control (100 uM Levosimendan)
Method in brief: as §1

BMX = BMX (Homo sapiens, UniProt P51813); conditions: competition binding, % of control; read-out: Percent Control (100 uM Levosimendan)
Method in brief: as §1

TSSK1B = TSSK1B (Homo sapiens, UniProt Q9BXA7); conditions: competition binding, % of control; read-out: Percent Control (100 uM Levosimendan)
Method in brief: as §1

MAST1 = MAST1 (Homo sapiens, UniProt Q9Y2H9); conditions: competition binding, % of control; read-out: Percent Control (100 uM Levosimendan)
Method in brief: as §1

TGFBR2 = TGFBR2 (Homo sapiens, UniProt P37173); conditions: competition binding, % of control; read-out: Percent Control (100 uM Levosimendan)
Method in brief: as §1

MAPKAPK2 = MAPKAPK2 (Homo sapiens, UniProt P49137); conditions: competition binding, % of control; read-out: Percent Control (100 uM Levosimendan)
Method in brief: as §1

PIK3CA = PIK3CA (Homo sapiens, UniProt P42336); conditions: competition binding, % of control; read-out: Percent Control (100 uM Levosimendan)
Method in brief: as §1

FLT3 = FLT3 (Homo sapiens, UniProt P36888); conditions: competition binding, % of control
Method in brief: as §1

FER = FER (Homo sapiens, UniProt P16591); conditions: competition binding, % of control; read-out: Percent Control (100 uM Levosimendan)
Method in brief: as §1

[1] = read-out: Percent Control (10 uM Levosimendan)
[2] = read-out: Percent Control (100 uM Levosimendan)

T3 sequence (P23443 whole entry): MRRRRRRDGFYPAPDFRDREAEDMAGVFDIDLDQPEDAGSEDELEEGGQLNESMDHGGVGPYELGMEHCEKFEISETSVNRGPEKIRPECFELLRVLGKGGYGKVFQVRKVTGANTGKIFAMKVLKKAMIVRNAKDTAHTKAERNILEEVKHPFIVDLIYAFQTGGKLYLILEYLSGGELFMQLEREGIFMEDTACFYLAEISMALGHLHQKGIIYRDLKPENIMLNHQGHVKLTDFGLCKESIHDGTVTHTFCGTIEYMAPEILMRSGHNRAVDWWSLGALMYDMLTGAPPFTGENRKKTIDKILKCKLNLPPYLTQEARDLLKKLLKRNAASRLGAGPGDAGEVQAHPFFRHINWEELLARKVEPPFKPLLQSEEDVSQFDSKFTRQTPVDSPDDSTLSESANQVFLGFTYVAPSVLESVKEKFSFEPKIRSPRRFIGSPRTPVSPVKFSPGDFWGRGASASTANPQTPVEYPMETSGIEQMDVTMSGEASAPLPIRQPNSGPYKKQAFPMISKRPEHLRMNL
RIOK1, sequence (Q9BRS2 whole entry): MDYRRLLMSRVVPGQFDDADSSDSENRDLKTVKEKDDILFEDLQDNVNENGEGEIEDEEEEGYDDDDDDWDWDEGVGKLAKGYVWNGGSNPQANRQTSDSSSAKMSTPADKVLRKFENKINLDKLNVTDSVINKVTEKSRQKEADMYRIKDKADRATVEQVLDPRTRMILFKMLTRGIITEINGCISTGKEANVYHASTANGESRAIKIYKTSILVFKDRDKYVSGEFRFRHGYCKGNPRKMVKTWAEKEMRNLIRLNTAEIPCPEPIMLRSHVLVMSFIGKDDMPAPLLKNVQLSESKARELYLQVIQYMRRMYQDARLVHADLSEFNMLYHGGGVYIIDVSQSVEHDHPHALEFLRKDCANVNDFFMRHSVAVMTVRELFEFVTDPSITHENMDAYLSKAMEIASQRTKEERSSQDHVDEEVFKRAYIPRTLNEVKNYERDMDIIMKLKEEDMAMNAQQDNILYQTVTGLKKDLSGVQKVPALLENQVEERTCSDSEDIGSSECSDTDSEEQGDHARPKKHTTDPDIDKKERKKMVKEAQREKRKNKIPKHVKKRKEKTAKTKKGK
FLT3, sequence (P36888 whole entry): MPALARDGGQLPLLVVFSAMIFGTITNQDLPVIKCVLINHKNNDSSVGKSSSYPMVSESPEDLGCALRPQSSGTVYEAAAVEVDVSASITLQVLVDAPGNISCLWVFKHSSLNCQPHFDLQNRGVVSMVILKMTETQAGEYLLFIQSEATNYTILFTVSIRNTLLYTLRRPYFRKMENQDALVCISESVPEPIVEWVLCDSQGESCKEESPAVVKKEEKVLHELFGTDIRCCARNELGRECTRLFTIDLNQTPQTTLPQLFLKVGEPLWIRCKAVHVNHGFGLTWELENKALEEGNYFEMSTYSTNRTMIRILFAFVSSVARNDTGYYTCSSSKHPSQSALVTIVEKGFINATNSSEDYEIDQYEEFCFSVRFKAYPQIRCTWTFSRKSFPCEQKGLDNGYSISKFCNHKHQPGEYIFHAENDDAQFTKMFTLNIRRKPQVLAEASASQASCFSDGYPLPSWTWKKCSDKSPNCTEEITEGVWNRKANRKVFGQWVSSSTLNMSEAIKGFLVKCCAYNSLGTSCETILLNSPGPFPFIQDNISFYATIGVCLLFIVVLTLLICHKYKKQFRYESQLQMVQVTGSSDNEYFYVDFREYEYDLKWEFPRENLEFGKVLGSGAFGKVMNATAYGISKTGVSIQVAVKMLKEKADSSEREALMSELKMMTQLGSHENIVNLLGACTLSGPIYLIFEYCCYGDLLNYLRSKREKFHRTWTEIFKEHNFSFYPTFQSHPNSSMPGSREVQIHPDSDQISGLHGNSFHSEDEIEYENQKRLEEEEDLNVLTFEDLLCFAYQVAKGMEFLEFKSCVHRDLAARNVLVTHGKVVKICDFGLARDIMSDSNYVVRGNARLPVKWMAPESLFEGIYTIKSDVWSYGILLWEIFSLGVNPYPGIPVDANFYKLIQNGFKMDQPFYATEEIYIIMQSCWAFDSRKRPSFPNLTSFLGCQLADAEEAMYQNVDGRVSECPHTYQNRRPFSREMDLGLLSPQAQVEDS
MAPKAPK2, sequence (P49137 whole entry): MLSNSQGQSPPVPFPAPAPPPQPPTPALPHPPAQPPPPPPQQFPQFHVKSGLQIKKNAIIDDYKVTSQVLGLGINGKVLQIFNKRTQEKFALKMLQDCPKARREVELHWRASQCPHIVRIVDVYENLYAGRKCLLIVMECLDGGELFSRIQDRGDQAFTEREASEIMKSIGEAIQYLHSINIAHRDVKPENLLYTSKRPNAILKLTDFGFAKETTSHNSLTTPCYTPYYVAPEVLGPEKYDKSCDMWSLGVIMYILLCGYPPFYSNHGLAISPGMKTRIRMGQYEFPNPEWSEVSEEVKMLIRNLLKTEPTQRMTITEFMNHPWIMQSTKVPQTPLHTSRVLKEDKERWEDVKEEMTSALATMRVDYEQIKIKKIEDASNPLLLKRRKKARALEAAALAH
TGFBR2, sequence (P37173 whole entry): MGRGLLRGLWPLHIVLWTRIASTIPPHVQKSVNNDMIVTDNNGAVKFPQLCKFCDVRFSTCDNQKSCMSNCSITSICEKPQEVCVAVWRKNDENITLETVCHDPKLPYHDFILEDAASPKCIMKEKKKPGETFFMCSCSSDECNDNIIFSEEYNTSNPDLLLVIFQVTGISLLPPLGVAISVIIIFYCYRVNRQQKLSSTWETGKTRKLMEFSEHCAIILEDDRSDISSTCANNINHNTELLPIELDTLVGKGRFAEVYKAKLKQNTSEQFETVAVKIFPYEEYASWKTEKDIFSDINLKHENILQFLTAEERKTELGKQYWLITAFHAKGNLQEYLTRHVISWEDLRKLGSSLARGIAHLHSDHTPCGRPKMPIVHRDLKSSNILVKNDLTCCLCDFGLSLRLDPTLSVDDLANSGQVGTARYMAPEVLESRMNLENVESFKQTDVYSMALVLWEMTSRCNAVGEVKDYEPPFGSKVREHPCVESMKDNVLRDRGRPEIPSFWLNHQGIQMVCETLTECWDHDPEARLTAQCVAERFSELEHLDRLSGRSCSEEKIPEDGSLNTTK
T4 sequence (Q13131 whole entry): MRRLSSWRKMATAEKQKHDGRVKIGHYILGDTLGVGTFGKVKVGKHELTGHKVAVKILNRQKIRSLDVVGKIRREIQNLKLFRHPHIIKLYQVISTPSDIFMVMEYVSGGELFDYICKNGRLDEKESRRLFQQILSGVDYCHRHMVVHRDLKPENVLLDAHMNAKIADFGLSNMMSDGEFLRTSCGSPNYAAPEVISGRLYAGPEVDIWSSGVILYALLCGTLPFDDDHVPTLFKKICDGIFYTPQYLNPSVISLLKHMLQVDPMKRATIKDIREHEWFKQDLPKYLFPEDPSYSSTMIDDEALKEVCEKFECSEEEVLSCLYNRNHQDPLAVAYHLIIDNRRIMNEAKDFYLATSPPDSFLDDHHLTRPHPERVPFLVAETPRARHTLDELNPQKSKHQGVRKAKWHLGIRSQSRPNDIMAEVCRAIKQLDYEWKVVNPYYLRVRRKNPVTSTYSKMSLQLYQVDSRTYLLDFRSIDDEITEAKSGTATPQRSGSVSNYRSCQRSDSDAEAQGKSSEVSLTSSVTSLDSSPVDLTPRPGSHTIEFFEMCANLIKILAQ
NEK10, sequence (Q6ZWH5 whole entry): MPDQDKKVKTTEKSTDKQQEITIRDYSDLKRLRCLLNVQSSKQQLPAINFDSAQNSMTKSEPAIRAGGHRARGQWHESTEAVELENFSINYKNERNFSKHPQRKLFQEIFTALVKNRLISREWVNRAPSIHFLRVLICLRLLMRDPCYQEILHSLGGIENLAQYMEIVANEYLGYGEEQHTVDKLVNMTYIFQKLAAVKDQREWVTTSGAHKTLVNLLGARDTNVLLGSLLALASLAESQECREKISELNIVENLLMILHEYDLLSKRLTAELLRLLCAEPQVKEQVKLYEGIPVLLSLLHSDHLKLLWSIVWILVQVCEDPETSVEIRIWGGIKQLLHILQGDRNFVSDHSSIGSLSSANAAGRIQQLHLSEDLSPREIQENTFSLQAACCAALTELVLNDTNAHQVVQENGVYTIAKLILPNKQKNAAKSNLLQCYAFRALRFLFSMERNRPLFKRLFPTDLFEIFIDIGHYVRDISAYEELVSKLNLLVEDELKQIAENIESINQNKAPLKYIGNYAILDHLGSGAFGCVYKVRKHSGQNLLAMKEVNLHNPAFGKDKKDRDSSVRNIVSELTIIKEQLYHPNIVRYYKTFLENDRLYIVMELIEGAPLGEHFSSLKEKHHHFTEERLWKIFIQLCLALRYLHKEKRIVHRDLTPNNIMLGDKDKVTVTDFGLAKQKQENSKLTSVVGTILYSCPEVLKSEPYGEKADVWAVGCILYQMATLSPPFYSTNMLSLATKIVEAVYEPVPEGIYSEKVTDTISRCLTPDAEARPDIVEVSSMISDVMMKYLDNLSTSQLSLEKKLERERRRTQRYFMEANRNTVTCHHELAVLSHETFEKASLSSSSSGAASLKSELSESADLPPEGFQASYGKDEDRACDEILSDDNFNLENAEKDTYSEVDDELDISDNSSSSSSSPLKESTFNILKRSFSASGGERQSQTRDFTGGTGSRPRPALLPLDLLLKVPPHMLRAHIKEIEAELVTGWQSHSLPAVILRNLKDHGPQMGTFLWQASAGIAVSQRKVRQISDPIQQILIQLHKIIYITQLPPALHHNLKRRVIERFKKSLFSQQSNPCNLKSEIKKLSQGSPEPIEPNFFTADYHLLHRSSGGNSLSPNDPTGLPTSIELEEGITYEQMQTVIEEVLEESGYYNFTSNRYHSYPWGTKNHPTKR

remaining binding at 100 µM (NEK10): 100%
remaining binding at 100 µM (CTK): 72%
remaining binding at 100 µM (TNNI3K): 95%
remaining binding at 100 µM (YANK2): 92%
remaining binding at 10 µM (S6K1; [1]): 84%
remaining binding at 100 µM (S6K1; [2]): 43%
remaining binding at 100 µM (EPHA7): 85%
remaining binding at 100 µM (AMPK-alpha1): 83%
remaining binding at 100 µM (ACVR1B): 61%
remaining binding at 100 µM (CDKL2): 100%
remaining binding at 10 µM (RIOK1; [1]): 15%
remaining binding at 100 µM (RIOK1; [2]): 0%
remaining binding at 100 µM (SRMS): 100%
remaining binding at 100 µM (BMX): 77%
remaining binding at 100 µM (TSSK1B): 85%
remaining binding at 100 µM (MAST1): 100%
remaining binding at 100 µM (TGFBR2): 89%
remaining binding at 100 µM (MAPKAPK2): 100%
remaining binding at 100 µM (PIK3CA): 96%
remaining binding at 10 µM (FLT3; [1]): 24%
remaining binding at 100 µM (FLT3; [2]): 0.9%
remaining binding at 100 µM (FER): 100%
SMILES: C[C@@H]1CC(=O)NN=C1c1ccc(NN=C(C#N)C#N)cc1 [levosimendan]
